Patent US6911431B1 (priority 1989, dated 2005)

Legend:
Lewis lung carcinoma = assay: Inhibition of Lewis lung tumor neovascularization; format: in vivo, C57BL/6 mice
Procedure: Lewis lung carcinoma cells (5×10^7) when injected (0.1 ml) intradermally into both flanks of C57BL/6 mice (day 0) produce a visible highly vascularized tumor nodules within 7 days. By excising the tumor the degree of tumor vascularity may be determined microscopically by counting the number of large vessels radiating from the tumor mass.

[1] = system: chicken embryo chorioallantoic membrane; assay: Chicken embryo chorioallantoic membrane (CAM) angiogenesis assay; format: in vivo; details: for Inhibition of Neovascularization Grade/Range / Mean % Inhibition of Neovascularization / Inhibition of Neovascularization Grade/Mean ± SD: 48 hrs; for Inhibition of Neovascularization Grade/Mean ± SD: grade scale 0-4
Procedure: Briefly, eight-day chicken embryos were removed from eggs and placed into sterile petri dishes. Individual filter paper disks were saturated with 7.5 μl of different stock solutions of L-Glu-L-Trp dissolved in sterile 0.14M NaCl to achieve final test concentrations of 0.001, 0.01, 0.1, 1.0, 10, 100, 500, and 1000 μg per disk. Disks were air dried and then inverted onto the surface of the respective embryos.
In this experiment saline served as a negative control and 10 μg/disk of heparin served as a positive control. The pentapeptide Thr-Ala-Glu-Glu-Lys (TAEEK) (SEQ ID NO 7) served as a specificity control, (i.e., for possible nonspecific effects of peptides on neovascularization at the concentrations tested). Nine-12 test disks and a corresponding number of different embryos were employed for each test concentration along with […] (each) positive and negative control embryos.

Sarcoma 180 tumors = assay: Sarcoma 180 tumor size after prophylactic treatment; format: in vivo, Swiss-Webster mice
Procedure: Neovascularization is required for tumor growth. Anti-tumor activity of L-Glu-L-Trp was evaluated at an independent contract research organization. Sarcoma 180 tumors (ATCC CCL-8 CCRF S-180 II) were induced by injecting 2×10^6 cells/0.1 ml im into each rear flank of Swiss-Webster mice. Groups consisted of 10 animals (20 tumors). L-Glu-L-Trp was administered in a single 0.1 ml dose of either 10 μg/kg, 75 μg/kg, 250 μg/kg or 1000 μg/kg. Tumor size was evaluated by surgically removing and weighing the affected limbs, and comparing the weight with the weight of normal control (non-tumor) limbs. The first prophylactic drug regimen (PDR-1) consisted of 5 consecutive daily ip injections commencing on day −5 and ending of day −1. The second prophylactic drug regimen (PDR-2) consisted of 5 consecutive daily im injections to the left rear flank (tumor site) beginning on day −5 and ending on day −1. Sarcoma 180 cells were injected im on day 0. Saline 0.1 ml served as the negative control.

[2] = PDR-1 (ip, day −5 to −1), 10 μg/kg
[3] = PDR-1 (ip, day −5 to −1), 75 μg/kg
[4] = PDR-1 (ip, day −5 to −1), 250 μg/kg
[5] = PDR-1 (ip, day −5 to −1), 1000 μg/kg
[6] = PDR-2 (im left flank), 10 μg/kg
[7] = PDR-2 (im left flank), 75 μg/kg
[8] = PDR-2 (im left flank), 250 μg/kg
[9] = PDR-2 (im left flank), 1000 μg/kg
[10] = PDR-2 (im left rear flank, day −5 to −1), 10 μg/kg
[11] = PDR-2 (im left rear flank, day −5 to −1), 75 μg/kg
[12] = PDR-2 (im left rear flank, day −5 to −1), 250 μg/kg
[13] = PDR-2 (im left rear flank, day −5 to −1), 1000 μg/kg

O=P1(N(CCCl)CCCl)NCCCO1 (stereo not shown) [Cytoxan, reference compound]
No. Vessels (Mean ± S.D.) (Lewis lung carcinoma; Dose 200 (column head μg/kg/dose), administered only on day 2): 9 ± 5

L-Glu-L-Trp
No. Vessels (Mean ± S.D.) (Lewis lung carcinoma; 125 μg/kg/dose im daily for 5 days): 6 ± 3
No. Vessels (Mean ± S.D.) (Lewis lung carcinoma; 250 μg/kg/dose im daily for 5 days): 7 ± 2
No. Vessels (Mean ± S.D.) (Lewis lung carcinoma; 500 μg/kg/dose im daily for 5 days): 9 ± 4
No. Vessels (Mean ± S.D.) (Lewis lung carcinoma; 1000 μg/kg/dose im daily for 5 days): 12 ± 5
No. Vessels (Mean ± S.D.) (Lewis lung carcinoma; 2000 μg/kg/dose im daily for 5 days): 17 ± 7
Inhibition of Neovascularization Grade/Range ([1]; 0.001 μg/disk): 0-2
Mean % Inhibition of Neovascularization ([1]; 0.001 μg/disk): 33 ± 20%
Inhibition of Neovascularization Grade/Mean ± SD ([1]; 0.001 μg/disk): 1.3 ± 0.82
decrease in vascularity in embryos ([1]; 10 ng-1000 μg in saline): 30-88%
Inhibition of Neovascularization Grade/Range ([1]; 0.01 μg/disk): 1-2
Mean % Inhibition of Neovascularization ([1]; 0.01 μg/disk): 38 ± 13%
Inhibition of Neovascularization Grade/Mean ± SD ([1]; 0.01 μg/disk): 1.5 ± 0.53
Inhibition of Neovascularization Grade/Range ([1]; 0.1 μg/disk): 0-3
Mean % Inhibition of Neovascularization ([1]; 0.1 μg/disk): 48 ± 23%
Inhibition of Neovascularization Grade/Mean ± SD ([1]; 0.1 μg/disk): 1.9 ± 0.88
Inhibition of Neovascularization Grade/Range ([1]; 1 μg/disk): 1-4
Mean % Inhibition of Neovascularization ([1]; 1 μg/disk): 58 ± 23%
Inhibition of Neovascularization Grade/Mean ± SD ([1]; 1 μg/disk): 2.33 ± 0.89
Inhibition of Neovascularization Grade/Range ([1]; 10 μg/disk): 1-4
Mean % Inhibition of Neovascularization ([1]; 10 μg/disk): 78 ± 28%
Inhibition of Neovascularization Grade/Mean ± SD ([1]; 10 μg/disk): 3.09 ± 1.14
Inhibition of Neovascularization Grade/Range ([1]; 100 μg/disk): 3-4
Mean % Inhibition of Neovascularization ([1]; 100 μg/disk): 85 ± 18%
Inhibition of Neovascularization Grade/Mean ± SD ([1]; 100 μg/disk): 3.44 ± 0.73
Inhibition of Neovascularization Grade/Range ([1]; 500 μg/disk): 1-4
Mean % Inhibition of Neovascularization ([1]; 500 μg/disk): 60 ± 20%
Inhibition of Neovascularization Grade/Mean ± SD ([1]; 500 μg/disk): 2.4 ± 0.84
Inhibition of Neovascularization Grade/Range ([1]; 1000 μg/disk): 2-4
Mean % Inhibition of Neovascularization ([1]; 1000 μg/disk): 83 ± 20%
Inhibition of Neovascularization Grade/Mean ± SD ([1]; 1000 μg/disk): 3.3 ± 0.82
Mean Tumor Weight Left (Sarcoma 180 tumors; PDR-1 (ip), 10 μg/kg): 3.0
Percent of Control Tumor Weight Left (Sarcoma 180 tumors; PDR-1 (ip), 10 μg/kg): 120%
Mean Tumor Weight Right (Sarcoma 180 tumors; PDR-1 (ip), 10 μg/kg): 2.9
Percent of Control Tumor Weight Right (Sarcoma 180 tumors; PDR-1 (ip), 10 μg/kg): 126%
Mean Tumor Weight Left (Sarcoma 180 tumors; PDR-1 (ip), 75 μg/kg): 3.0
Percent of Control Tumor Weight Left (Sarcoma 180 tumors; PDR-1 (ip), 75 μg/kg): 120%
Mean Tumor Weight Right (Sarcoma 180 tumors; PDR-1 (ip), 75 μg/kg): 3.0
Percent of Control Tumor Weight Right (Sarcoma 180 tumors; PDR-1 (ip), 75 μg/kg): 130%
Mean Tumor Weight Left (Sarcoma 180 tumors; PDR-1 (ip), 250 μg/kg): 2.3
Percent of Control Tumor Weight Left (Sarcoma 180 tumors; PDR-1 (ip), 250 μg/kg): 92%
Mean Tumor Weight Right (Sarcoma 180 tumors; PDR-1 (ip), 250 μg/kg): 1.9
Percent of Control Tumor Weight Right (Sarcoma 180 tumors; PDR-1 (ip), 250 μg/kg): 83%
Mean Tumor Weight Left (Sarcoma 180 tumors; PDR-1 (ip), 1000 μg/kg): 1.3
Percent of Control Tumor Weight Left (Sarcoma 180 tumors; PDR-1 (ip), 1000 μg/kg): 52%
Mean Tumor Weight Right (Sarcoma 180 tumors; PDR-1 (ip), 1000 μg/kg): 1.0
Percent of Control Tumor Weight Right (Sarcoma 180 tumors; PDR-1 (ip), 1000 μg/kg): 43%
Leg Weight Left (Sarcoma 180 tumors; [2]): 4.2 ± 0.9 g
Leg Weight Right (Sarcoma 180 tumors; [2]): 4.1 ± 0.7 g
Leg Weight Left (Sarcoma 180 tumors; [3]): 4.2 ± 0.8 g
Leg Weight Right (Sarcoma 180 tumors; [3]): 4.2 ± 0.8 g
Leg Weight Left (Sarcoma 180 tumors; [4]): 3.5 ± 1.0 g
Leg Weight Right (Sarcoma 180 tumors; [4]): 3.1 ± 0.6 g
Leg Weight Left (Sarcoma 180 tumors; [5]): 2.5 ± 0.7 g
Leg Weight Right (Sarcoma 180 tumors; [5]): 2.2 ± 0.5 g
Mean Tumor Weight Left (Sarcoma 180 tumors; [6]): 2.4
Percent of Control Tumor Weight Left (Sarcoma 180 tumors; [6]): 96%
Mean Tumor Weight Right (Sarcoma 180 tumors; [6]): 2.6
Percent of Control Tumor Weight Right (Sarcoma 180 tumors; [6]): 113%
Mean Tumor Weight Left (Sarcoma 180 tumors; [7]): 2.4
Percent of Control Tumor Weight Left (Sarcoma 180 tumors; [7]): 96%
Mean Tumor Weight Right (Sarcoma 180 tumors; [7]): 3.3
Percent of Control Tumor Weight Right (Sarcoma 180 tumors; [7]): 143%
Mean Tumor Weight Left (Sarcoma 180 tumors; [8]): 1.8
Percent of Control Tumor Weight Left (Sarcoma 180 tumors; [8]): 72%
Mean Tumor Weight Right (Sarcoma 180 tumors; [8]): 1.1
Percent of Control Tumor Weight Right (Sarcoma 180 tumors; [8]): 48%
Mean Tumor Weight Left (Sarcoma 180 tumors; [9]): 1.2
Percent of Control Tumor Weight Left (Sarcoma 180 tumors; [9]): 48%
Mean Tumor Weight Right (Sarcoma 180 tumors; [9]): 1.3
Percent of Control Tumor Weight Right (Sarcoma 180 tumors; [9]): 57%
Leg Weight Left (Sarcoma 180 tumors; [10]): 3.6 ± 0.7 g
Leg Weight Right (Sarcoma 180 tumors; [10]): 3.8 ± 0.7 g
Leg Weight Left (Sarcoma 180 tumors; [11]): 3.6 ± 0.7 g
Leg Weight Right (Sarcoma 180 tumors; [11]): 3.5 ± 0.3 g
Leg Weight Left (Sarcoma 180 tumors; [12]): 3.0 ± 0.1 g
Leg Weight Right (Sarcoma 180 tumors; [12]): 2.3 ± 0.5 g
Leg Weight Left (Sarcoma 180 tumors; [13]): 2.4 ± 0.5 g
Leg Weight Right (Sarcoma 180 tumors; [13]): 2.5 ± 0.5 g

Thr-Ala-Glu-Glu-Lys (TAEEK) [pentapeptide specificity control]
Inhibition of Neovascularization Grade/Range ([1]; 0.001 μg/disk): 0-0
Mean % Inhibition of Neovascularization ([1]; 0.001 μg/disk): 0%
Inhibition of Neovascularization Grade/Mean ± SD ([1]; 0.001 μg/disk): 0 ± 0
Inhibition of Neovascularization Grade/Range ([1]; 0.01 μg/disk): 0-0
Mean % Inhibition of Neovascularization ([1]; 0.01 μg/disk): 0%
Inhibition of Neovascularization Grade/Mean ± SD ([1]; 0.01 μg/disk): 0 ± 0
Inhibition of Neovascularization Grade/Range ([1]; 0.1 μg/disk): 0-0
Mean % Inhibition of Neovascularization ([1]; 0.1 μg/disk): 0%
Inhibition of Neovascularization Grade/Mean ± SD ([1]; 0.1 μg/disk): 0 ± 0
Inhibition of Neovascularization Grade/Range ([1]; 1 μg/disk): 0-1
Mean % Inhibition of Neovascularization ([1]; 1 μg/disk): 8 ± 10%
Inhibition of Neovascularization Grade/Mean ± SD ([1]; 1 μg/disk): 0.33 ± 0.49
Inhibition of Neovascularization Grade/Range ([1]; 10 μg/disk): 0-1
Mean % Inhibition of Neovascularization ([1]; 10 μg/disk): 5 ± 10%
Inhibition of Neovascularization Grade/Mean ± SD ([1]; 10 μg/disk): 0.18 ± 0.40
Inhibition of Neovascularization Grade/Range ([1]; 100 μg/disk): 0-2
Mean % Inhibition of Neovascularization ([1]; 100 μg/disk): 18 ± 23%
Inhibition of Neovascularization Grade/Mean ± SD ([1]; 100 μg/disk): 0.67 ± 0.87
Inhibition of Neovascularization Grade/Range ([1]; 500 μg/disk): 0-1
Mean % Inhibition of Neovascularization ([1]; 500 μg/disk): 9 ± 13%
Inhibition of Neovascularization Grade/Mean ± SD ([1]; 500 μg/disk): 0.3 ± 0.48
Inhibition of Neovascularization Grade/Range ([1]; 1000 μg/disk): 0-2
Mean % Inhibition of Neovascularization ([1]; 1000 μg/disk): 18 ± 20%
Inhibition of Neovascularization Grade/Mean ± SD ([1]; 1000 μg/disk): 0.7 ± 0.82

heparin
Inhibition of Neovascularization Grade/Range ([1]; 10 μg/disk): 1-4
Mean % Inhibition of Neovascularization ([1]; 10 μg/disk): 81 ± 18%
Inhibition of Neovascularization Grade/Mean ± SD ([1]; 10 μg/disk): 3.26 ± 0.73
